The results in this text go back to publication PMC5012620, “Blocking the Interactions between Calcium-Bound S100A12 Protein and the V Domain of RAGE Using Tranilast” (PLoS ONE, 2016).

One experiment has as its target T1, S100A12 (Homo sapiens, UniProt P80511).
T1 sequence (P80511 2-92): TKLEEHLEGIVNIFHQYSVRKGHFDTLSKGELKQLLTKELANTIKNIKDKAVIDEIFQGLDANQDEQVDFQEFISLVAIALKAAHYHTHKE
Put plainly: fluorescence titration (tranilast emission, excitation […] nm); 1H-15N HSQC NMR titration. The format is binding.

A further experiment addresses T2, RAGE V domain V domain (Homo sapiens, UniProt Q15109).
T2 chain: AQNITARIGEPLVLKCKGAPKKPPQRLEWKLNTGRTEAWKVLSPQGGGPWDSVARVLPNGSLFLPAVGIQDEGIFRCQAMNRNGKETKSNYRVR
Put plainly: fluorescence titration (Trp).

On S100A12, `COc1ccc(/C=C/C(=O)Nc2ccccc2C(=O)O)cc1OC` [tranilast] came in with a Kd of 6.1 ± 1.4 µM.

B1: S100A12 (protein)
chain: T1 sequence (P80511 2-92)
modifications: Ca2+
In the case of B1, the Kd in the experiment with RAGE V domain V domain was around 3.1 µM.

For orientation: Kd means a measure of binding affinity in units of concentration.
